Data as given in patent US10207003B2, “Liquid pentablock co-polymer formulations for sustained delivery of therapeutics” (i-novion, Inc., priority 2016, dated 2019).

How the values were obtained:
[1] = Visual clarity of PTSsol formulations on storage; assay type: physicochemical; conditions: for Time formulation remained clear and stable: PTSsol, stored at room temperature or refrigerated at 4° C., 1% cyclosporine, up to 2.5% brinzolamide; for Time formulation remained visibly clear without drug precipitating out: stored refrigerated, exemplary PTSsol, 1% and 2.5% brinzolamide, 1% cyclosporine A, 0.07% and 0.1% difluprednate
Description: (§1) Hydrophobic active agents that are difficult to formulate in aqueous compositions are typically formulated as emulsions or suspensions. […] Similarly, PTSsol for 0.5% celecoxib was prepared in 10% PTS121GH in PBS buffer at pH 7.4. […] Referring to FIGS. 2 and 3 the stability of 2.5% brinzolamide in 25% 1-0 GH polymer dispersion in PBS at pH 7.4 was analyzed over 8 weeks, using HPLC.
In this example, an artificial tear composition using PTSsol polymers was generated. PTS solutions are clear, bioadhesive, biocompatible, and biodegradable polymers ideal for sensitive medical applications, such as preparing artificial tears for relieving eye discomfort caused by dry eye. […] Additional excipients can be added to the formulation as desired.

[2] = Dissolving hydrophobic active agents in PTSsol as clear aqueous liquids; assay type: physicochemical
Description: as §1

| Time formulation remained clear and stable [1] [weeks] | Time formulation remained clear and stable ([1]; listed as BRZ) [weeks] | Time formulation remained visibly clear without drug precipitating out [1] [days] | Drug concentration dissolved as clear liquid ([2]; in 10% PTS1-0GH PTSsol) | Drug concentration dissolved as very clear liquid ([2]; in 10% of 121GH polymer) [%] | Dissolution in hydrophilic polymer ([2]; directly in PTS121 GH polymer) | Drug concentration of stable aqueous formulation ([2]; first dissolved in gelling polymer 113 GH or 122 GH, then mixed with PTS121 GH) [%] | Compound |
| --- | --- | --- | --- | --- | --- | --- | --- |
| 8 | ≥ 8 | 28 | up to 2.5% | 2.5 |  |  | CCN[C@H]1CN(CCCOC)S(=O)(=O)c2sc(S(N)(=O)=O)cc21 [brinzolamide] |
|  |  | 8 |  |  | does not readily dissolve | ≤ 0.1 | CCCC(=O)O[C@]1(C(=O)COC(C)=O)CC[C@H]2[C@@H]3C[C@H](F)C4=CC(=O)C=C[C@]4(C)[C@@]3(F)[C@@H](O)C[C@@]21C [difluprednate] |
